Data: US9757403B2, “Glycan therapeutics and related methods thereof” (KALEIDO BIOSCIENCES, INC., priority 2015, dated 2017)

System: Clostridium difficile (strain VPI 10463 (ATCC-43255))
Test: Mouse model of Clostridium difficile infection, disease-associated phenotypes and spore carriage
Type: in vivo, Mice (female C57BL/6)
Procedure: This experiment was conducted to analyze the effects of glycan therapeutics in a mouse model of Clostridium difficile infection (Chen et al, 2008, A Mouse Model of Clostridium difficile-Associated Disease. Gastroenterology 135(6), 1984-1992). In this model, normal mice were exposed to an antibiotic regimen that renders them susceptible to C. difficile infection and disease symptoms, similar with respect to their development and manifestation of human clinical disease. In humans, the disease is most often the result of exposure to broad spectrum antibiotics which is thought to result in intestinal dysbiosis and subsequent increased colonic colonization with C. difficile. […]
Disease-associated phenotypes were recorded for a duration of ten days starting on the day of Clostridium difficile challenge (on day 0) through day 10. The phenotypes, including lethargy, hunched posture and ruffled coat, wet tail/abdomen and hypothermia were scored from 0 to 4: Normal=0; Lethargic=1; Lethargic+Hunched=2; Lethargic+Hunched+Wet tail/abdomen (diarrhea)=3; and Lethargic+Hunched+Wet tail/abdomen+Hypothermic=4. Death (day 0 to day 10 or 11) and weight (day 1 to day 7 and day 10) of the animals was also monitored and recorded.
In addition, carriage of Clostridium difficile spores, which is indicative of Clostridium difficile gut colonization in both mice and humans, was assessed daily from day 0 to day 6. […]

CN[C@H](CC(C)C)C(=O)N[C@H]1C(=O)N[C@@H](CC(N)=O)C(=O)N[C@H]2C(=O)N[C@H]3C(=O)N[C@H](C(=O)N[C@H](C(=O)O)c4cc(O)cc(O)c4-c4cc3ccc4O)[C@H](O)c3ccc(c(Cl)c3)Oc3cc2cc(c3O[C@@H]2O[C@H](CO)[C@@H](O)[C@H](O)[C@H]2O[C@H]2C[C@](C)(N)[C@H](O)[C@H](C)O2)Oc2ccc(cc2Cl)[C@H]1O [Vancomycin, vancomycin]
clinical signs on day 10 (PO gavage QD days 0 to 4): exhibited clinical signs | clinical score of survivors (score 0 to 4, after end of treatment, days 7 to 10): above 0
